Data as given in article PMC3880124 (MedChemComm, 2013).
Like-named read-outs stand apart in the source and are kept apart here.

Columns and labels:
PASMC = settings: 24 h
SK1 [1] = molecular target: T1, SK1 (Homo sapiens, UniProt Q9NYA1); experiment: SK1 expression in PASMC; settings: 10 μM, 24 h, western blot
SK1 [2] = molecular target: T1, SK1; experiment: Inhibition of SK1 activity; settings: compound at 50 μM; Sph 3 μM
SK1 [3] = molecular target: T1, SK1; experiment: Test of compounds as SK1 substrates; assay type: biochemical; settings: compound at 50 μM
SK2 [4] = molecular target: T2, SK2 (Homo sapiens, UniProt Q9NRA0); experiment: Inhibition of SK2 activity; assay type: biochemical; settings: compound at 50 μM; Sph 10 μM
T2 sequence (Q9NRA0 1-654): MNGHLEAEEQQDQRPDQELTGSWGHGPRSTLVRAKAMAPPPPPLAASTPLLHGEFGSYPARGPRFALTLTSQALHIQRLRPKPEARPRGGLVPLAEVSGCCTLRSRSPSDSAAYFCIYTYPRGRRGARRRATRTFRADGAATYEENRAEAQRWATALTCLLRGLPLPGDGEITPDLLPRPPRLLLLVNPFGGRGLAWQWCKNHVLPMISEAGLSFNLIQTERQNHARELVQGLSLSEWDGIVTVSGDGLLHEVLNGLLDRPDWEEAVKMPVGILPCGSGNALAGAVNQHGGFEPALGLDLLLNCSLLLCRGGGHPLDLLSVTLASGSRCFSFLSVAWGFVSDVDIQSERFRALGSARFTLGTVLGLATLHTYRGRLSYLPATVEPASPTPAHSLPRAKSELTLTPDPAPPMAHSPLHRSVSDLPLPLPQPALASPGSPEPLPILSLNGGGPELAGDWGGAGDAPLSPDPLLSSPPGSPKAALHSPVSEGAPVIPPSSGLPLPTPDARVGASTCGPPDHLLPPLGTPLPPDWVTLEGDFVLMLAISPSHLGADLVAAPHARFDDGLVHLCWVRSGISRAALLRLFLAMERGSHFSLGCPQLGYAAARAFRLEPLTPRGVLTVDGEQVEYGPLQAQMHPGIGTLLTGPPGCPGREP

SK2 [5] = molecular target: T2, SK2; experiment: Test of compounds as SK2 substrates; assay type: biochemical; settings: compound at 50 μM

T1 sequence (Q9NYA1 whole entry): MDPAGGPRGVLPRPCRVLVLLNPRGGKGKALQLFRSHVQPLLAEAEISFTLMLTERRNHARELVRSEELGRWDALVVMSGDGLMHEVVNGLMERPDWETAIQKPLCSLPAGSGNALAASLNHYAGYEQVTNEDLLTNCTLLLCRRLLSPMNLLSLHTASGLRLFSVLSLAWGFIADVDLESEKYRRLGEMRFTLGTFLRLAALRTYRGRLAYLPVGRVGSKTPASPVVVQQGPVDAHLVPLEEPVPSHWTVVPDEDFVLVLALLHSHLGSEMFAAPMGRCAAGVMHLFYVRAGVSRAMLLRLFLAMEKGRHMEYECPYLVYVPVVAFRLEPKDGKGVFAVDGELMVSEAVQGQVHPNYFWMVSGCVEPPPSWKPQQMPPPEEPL

## CCCCCCCCCCCCCCC[C@@H](O)[C@H](C)N [55-21, (2S,3R)-2-amino-3-octadecanol]
PASMC; 100 nM and 1 μM
  effect on DNA synthesis: significantly inhibited DNA synthesis
SK1 [1]
  effect on SK1 expression: reduced the expression of SK1
SK1 [2]
  SK1 inhibition in words: more effective SK1 inhibitors

## CCCCCCCCCCCCCCC[C@@H](O)[C@H](CO)NC(=S)Nc1cccc(F)c1 [F-01]
SK1 [3]
  substrate of SK1: weak substrates of SK1
SK2 [4]
  SK2 inhibition in words: less effective
SK2 [5]
  substrate of SK2: very weak substrates of SK2

## CCCCCCCCCCCCCCOC[C@@H](O)[C@H](C)N(C)C [77-7]
SK1 [2]
  SK1 inhibition in words: effective SK1 inhibitor

## CCCCCCCCCCCCC/C=C/[C@@H](O)[C@H](CO)NC(=S)Nc1ccc(C(F)(F)F)cc1 [67-330]
SK1 [2]
  SK1 inhibition in words: weak inhibitor of both SK isoforms
SK2 [4]
  SK2 inhibition in words: weak inhibitor of both SK isoforms

## CCCCCCCCCCCCc1ccc(C(=O)N2CCC[C@H]2C(=N)N)cc1.Cl [VPC96091, reference compound]
PASMC; 300 nM
  effect on DNA synthesis: ineffective at reducing DNA synthesis
SK2 [4]
  SK2 inhibition in words: abolished SK1 and SK2 activity

## CCCCCCCCCCCCCC[C@H]1OC[C@H](NC(=S)Nc2c(F)c(F)c(F)c(F)c2F)[C@@H]1O [67-341]
SK1 [3]
  substrate of SK1: weak substrates of SK1

## CCCCCCCCCCCCCCC[C@@H](O)[C@H](C)[N+](C)(C)C.Cc1ccc(S(=O)(=O)[O-])cc1 [77-13]
SK1 [3]
  substrate of SK1: weak substrates of SK1
SK1 [2]
  SK1 inhibition in words: nonselective SK inhibitor
SK2 [4]
  SK2 inhibition in words: nonselective SK inhibitor

## CCCCCCCCCCCCC/C=C\[C@@H](O)[C@@H](N)CO [67-302]
SK1 [3]
  substrate of SK1: weak substrates of SK1
SK2 [5]
  substrate of SK2: efficiently phosphorylated by SK2

## CCCCCCCCCCCCCCC[C@@H](O)[C@H](CO)NC(=S)Nc1cccc(C(F)(F)F)c1 [F-02]
SK1 [1]
  effect on SK1 expression: without effect on SK1 expression
SK2 [5]
  substrate of SK2: very weak substrates of SK2

## Cc1cc(CS(=O)(=O)c2ccccc2)cc(OCc2ccc(CN3CCC[C@@H]3CO)cc2)c1 [PF-543]
PASMC; 10 nM and 100 nM
  effect on DNA synthesis: ineffective at reducing DNA synthesis
